# Data published in PubChem BioAssay (NCI).
#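 All cell lines were grown in 96-well plates and treated with compound for 48 hours. GI50 = concentration required for 50% inhibition of growth. Definition used: TGI = concentration required for complete inhibition of growth.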
# What was measured:
# Assay in all cases: growth of human tumour cells (NCI), 48 h
# A549 NSCLC = test system: A549 NSCLC
# COLO 205 colon = test system: COLO 205 colon
# HL-60(TB) leukemia = test system: HL-60(TB) leukemia
# KM12 colon = test system: KM12 colon
# RXF 393 renal = test system: RXF 393 renal
# SF-295 CNS = test system: SF-295 CNS
# OVCAR-4 ovarian = test system: OVCAR-4 ovarian
# SN12C renal = test system: SN12C renal
# NCI/ADR-RES ovarian = test system: NCI/ADR-RES ovarian
Structure (SMILES),TGI (A549 NSCLC),TGI (COLO 205 colon),TGI (HL-60(TB) leukemia),TGI (KM12 colon),TGI (RXF 393 renal),TGI (SF-295 CNS),TGI (OVCAR-4 ovarian),TGI (SN12C renal),TGI (NCI/ADR-RES ovarian),GI50 (A549 NSCLC),GI50 (COLO 205 colon),GI50 (KM12 colon),GI50 (NCI/ADR-RES ovarian),GI50 (OVCAR-4 ovarian),GI50 (RXF 393 renal),GI50 (SF-295 CNS),GI50 (SN12C renal),GI50 (HL-60(TB) leukemia)
[O-]/[N+](=C\c1ccccc1)[C@H](COCc1ccccc1)c1ccccc1,> 100 µM,> 100 µM,62.1 µM,> 100 µM,> 100 µM,> 100 µM,,,,,,,,,,,,
CCOc1ccc(NC(=O)CC2SC(=Nc3ccc(Cl)cc3)NC2=O)cc1 (configuration not stated),> 100 µM,> 100 µM,75.4 µM,> 100 µM,> 100 µM,> 100 µM,> 100 µM,> 100 µM,,,,,,,,,,
O=C(O)CN(c1ccccc1)S(=O)(=O)c1ccc(NC(=O)c2ccccc2)cc1,> 100 µM,> 100 µM,> 100 µM,,> 100 µM,,> 100 µM,> 100 µM,,,,,,,,,,
O=C(CC1=Nc2nnc(-c3nnc4n3C(=O)C(CC(=O)c3cccnc3)=N4)n2C1=O)c1cccnc1,> 100 µM,> 100 µM,> 100 µM,> 100 µM,> 100 µM,> 100 µM,> 100 µM,> 100 µM,,,,,,,,,,
O=C(c1ccc2ccccc2c1O)N1CCCCC1,,> 100 µM,> 100 µM,> 100 µM,> 100 µM,> 100 µM,> 100 µM,,> 100 µM,,,,,,,,,
C=CCC1OC(C)(C)Oc2ccc(OCOCCOC)cc21 (configuration not stated),> 100 µM,,,> 100 µM,> 100 µM,> 100 µM,> 100 µM,> 100 µM,,,,,,,,,,
COc1ccc(S(=O)(=O)NC(C)C(=O)O)cc1 (configuration not stated),> 100 µM,> 100 µM,> 100 µM,> 100 µM,> 100 µM,> 100 µM,> 100 µM,> 100 µM,,,,,,,,,,
O=C(c1ccccc1)c1c(NCC(O)CN2CCCC2)n(Cc2ccccc2)c(=O)n(Cc2ccccc2)c1=O (configuration not stated),> 100 µM,31.2 µM,,31.7 µM,53.3 µM,33.7 µM,57.1 µM,39.1 µM,55.3 µM,32.3 µM,16.2 µM,15.8 µM,19.5 µM,23.9 µM,21.6 µM,18 µM,19.3 µM,
Cc1[nH]ncc1-c1cc2nc(C3CC4CCN3CC4)[nH]c(=O)c2s1 (configuration not stated),> 100 µM,,6.15 µM,> 100 µM,5.96 µM,> 100 µM,> 100 µM,> 100 µM,> 100 µM,2.67 µM,,4.07 µM,11.8 µM,9.68 µM,2.36 µM,2.88 µM,3.31 µM,2.06 µM
COc1cc2c(cc1O)C=NCC2,> 100 µM,> 100 µM,> 100 µM,> 100 µM,,> 100 µM,> 100 µM,> 100 µM,,,,,,,,,,
O=C(/C=C/c1ccc(B(O)O)cc1)/C=C/c1ccc(B(O)O)cc1,15.2 µM,4.83 µM,,3.23 µM,3.45 µM,5.66 µM,24 µM,13.9 µM,62.9 µM,3.55 µM,2.21 µM,1.66 µM,17 µM,11.4 µM,1.7 µM,2.02 µM,3.22 µM,
CC12CC3C(CC1SCC(=O)O2)C3(C)C (configuration not stated),> 100 µM,> 100 µM,> 100 µM,> 100 µM,,> 100 µM,> 100 µM,> 100 µM,,,,,,,,,,
COc1ccc(/C=C2\CN(C)Cc3c2nc(N)nc3-c2ccc(OC)cc2)cc1,> 100 µM,> 100 µM,85.2 µM,> 100 µM,> 100 µM,> 100 µM,,> 100 µM,,,,,,,,,,
COc1cc(CCc2cccnc2)cc(OC)c1OC,> 100 µM,> 100 µM,> 100 µM,> 100 µM,> 100 µM,> 100 µM,> 100 µM,> 100 µM,,,,,,,,,,
N#C/C(=C\c1ccccc1O)C(N)=O,> 100 µM,> 100 µM,43.3 µM,> 100 µM,87.5 µM,> 100 µM,> 100 µM,> 100 µM,,,,,,,,,,
CC(C)(C)OC(=O)NCCNC1=CC(=O)c2nc3ccccc3c3ccnc1c23,> 100 µM,34.7 µM,> 100 µM,66.6 µM,,40 µM,67.6 µM,55.6 µM,74.5 µM,18.4 µM,12.7 µM,22.7 µM,23.3 µM,24.3 µM,,18.2 µM,17.7 µM,12.2 µM
O=P([O-])(O)OP(=O)([O-])O.[NH-][C@H]1CCCC[C@@H]1[NH-].[OH-].[OH-].[Pt+4],,> 100 µM,,> 100 µM,36.1 µM,44.1 µM,> 100 µM,87.9 µM,78.1 µM,,88.2 µM,> 100 µM,22.7 µM,71.2 µM,17.6 µM,19.8 µM,29.2 µM,
O=C1c2ccccc2C2(O)Nc3cc(O)ccc3C12O (configuration not stated),> 100 µM,> 100 µM,> 100 µM,> 100 µM,> 100 µM,> 100 µM,> 100 µM,> 100 µM,,,,,,,,,,
